According to patent US6630140B1, “Compositions and methods for treatment of asthma” (The Children's Hospital of Philadelphia, priority 1998, dated 2003):
Structures can show the parent of a compound that is named as a salt.

Legend:
[1] = system: tracheal smooth muscle (TSM) segments; assay: Relaxation dose-response to isoproterenol in TSM segments half-maximally contracted with ACh; assay type: cell-based, rabbit
Description: Rabbits were anesthetized with xylazine (10 mg/kg) and ketarnine (50 mg/kg) and were subsequently sacrificed using an overdose of pentobarbital (130 mg/kg). The tracheae of the rabbits were removed via open thoracotomy, the tracheae were cleared of loose connective tissue and were divided into eight ring segments of 6-8 mm length. Each segment referred to herein as a tracheal smooth muscle (TSM) segment was incubated for 24 hours at room temperature in either of the following: 1) human serum containing immunoglobulin (Ig) E at greater than 1000 IU/ml which was obtained from allergic patients having moderate to severe asthma and a 4-5/6+radioallergosorbent test (RAST) positive (having a specific IgE concentration of more than 17.5 Phadebas RAST units (PRU)/ml) to Dermatophagoides pteronyssimus, Dermatophagoides farinae and ragweed, and a positive skin test to these antigens; or 2) human serum obtained from non-atopic, non-asthmatic individuals having normal serum IgE levels (i.e., <70 IU/ml) and negative skin test reactivity to Dermatophagoides pteronyssimus, Dermatophagoides farinae and ragweed (Hakonarson et al. 1995, Am. J. Physiol. (Lung Cell Mol. Physiol.) 269:L645-L652).
In parallel experiments, TSM segments were incubated in either control serum or in atopic asthmatic serum that was: a) depleted of its immunoglobulin complexes by pretreatment with sepharose Staphylococcus protein A as described (Kessler, 1975, J. Immunol. 1 15:161.7-1624); b) co-incubated with an anti-CD23 (40 μg/ml) monoclonal blocking antibody; or c) with an anti-CD 16 (2 μg/ml) monoclonal blocking antibody. The TSM segments were treated with their respective anti-CD23 or anti-CD16 antibodies in Dulbecco's modified Eagle's medium for 1 hour prior to exposure to the atopic asthmatic serum.
In extended experiments, paired TSM segments were incubated for 24 hours in Dulbecco's modified Eagle's medium, as previously described (Hakonarson et al., 1996, J. Clin. Invest. 97:2593-2600), containing either: a) human IgE (final bath concentration (FBC): 15 μg/ml); or b) human IgE-goat-anti-human IgE immune complexes (FBC: 15:5 μg/ml of IgE/anti-IgE in the final organ bath mixture). Tissues incubated in medium alone served as controls. The concentrations of immune complexes used for the TSM incubations were based on the results obtained in pilot studies which were designed to determine the concentration and ratio of immune complexes that induced the greatest acute contractile effect in isolated sensitized TSM segments. The serum was aerated with a continuous supplemental O2 mixture (95% O2/5% CO2) during the incubation phase.
Following incubation of the tissue preparations obtained as described herein, each rabbit airway segment was suspended longitudinally between stainless steel triangular supports in siliconized Harvard 20 ml organ baths. […] Care was taken to place the membranous portion of the trachea between the supports in order to maximize the recorded tension generated by the contracting trachealis muscle. The tissues were bathed in modified Krebs-Ringer solution containing 125 mM NaCl, 14 mM NaHCO3, 4 mM KCl, 2.25 mM CaCl2.H2O, 1.46 MgSO4.H2O, 1.2 mM NaH2PO4.H2O and 11 mM glucose. The baths were aerated with 5% CO2 in oxygen, a pH of 7.35-7.40 was maintained, and the organ bath temperature was held at 37° C. Passive resting tension of each TSM segment was set at 2.0 g after each tissue had been passively stretched to a tension of 8 g in order to optimize the resting length of each segment as described (Tanaka et al., 1990, J. Clin. Invest. 85:345-350). The tissues were allowed to equilibrate in the organ baths for 45 minutes, at which time each tissue was primed with a 1 minute exposure to 10−4 M acetylcholine (ACh). […]

[2] = system: tracheal smooth muscle (TSM) segments; assay: Cholinergic contractility of isolated TSM segments to cumulative ACh (organ bath, isometric tension); assay type: cell-based, rabbit
Description: Rabbits were anesthetized with xylazine (10 mg/kg) and ketarnine (50 mg/kg) and were subsequently sacrificed using an overdose of pentobarbital (130 mg/kg). The tracheae of the rabbits were removed via open thoracotomy, the tracheae were cleared of loose connective tissue and were divided into eight ring segments of 6-8 mm length. […]
Following incubation of the tissue preparations obtained as described herein, each rabbit airway segment was suspended longitudinally between stainless steel triangular supports in siliconized Harvard 20 ml organ baths. […] Care was taken to place the membranous portion of the trachea between the supports in order to maximize the recorded tension generated by the contracting trachealis muscle. […]

[3] = TSM incubated with control serum

Compound | Rmax (% maximal relaxation) for isoproterenol ([1]; IgE immune complex-treated TSM (15:5 μg/ml, 24 h)) [%] | Rmax (% maximal relaxation) for isoproterenol ([1]; atopic asthmatic serum-sensitized TSM) [%] | Rmax (% maximal relaxation) for isoproterenol ([1]; control TSM, vehicle alone 24 h) [%] | Rmax (% maximal relaxation) for isoproterenol ([1]; control serum-treated TSM) [%] | Effect on relaxation responsiveness to isoproterenol [1, 3] | Effect on the attenuated isoproterenol-induced relaxation responses ([1]; atopic asthmatic serum-sensitized TSM, tissue pretreated with antibody (anti-CD23 40 μg/ml, anti-CD16 2 μg/ml) or serum depleted with SpA) | Effect on contractility of the tissue to ACh [2, 3] | Effect on the induced augmented constrictor responses to ACh ([2]; atopic asthmatic serum-sensitized TSM, tissue pretreated with antibody (anti-CD23 40 μg/ml, anti-CD16 2 μg/ml) or serum pre-treated with SpA)
CC(C)NCC(O)c1ccc(O)c(O)c1 (centres unmarked) [isoproterenol, isoproterenol hydrochloride] | 36.8±10.4 | 26.0±5.1 | 67.8±6.0 | 47.0±4.7 | – | – | – | –
SpA: Sepharose Staphylococcus protein A used to deplete the sensitizing serum of its immune complexes | – | – | – | – | neither anti-CD23 MAb nor pretreatment of the control serum with SpA affected | ablated | neither anti-CD23 MAb nor pretreatment of the control serum with SpA affected | largely prevented
